Experimental data as given in patent US12370192B2, “Azole-fused pyridazin-3(2H)-one derivatives” (TAKEDA PHARMACEUTICAL COMPANY LIMITED, priority 2019, dated 2025).

Key:
human GPR139 receptor [1] = biological target: T1, human GPR139 receptor (Homo sapiens, UniProt Q6DWJ6); assay: GPR139 Competition Binding (membrane-based, tritium-labeled ligand); settings: T-REx-CHO membranes with human GPR139; 6.5 nM tritium-labeled ligand; 11-point curve, 30 μM maximum concentration; read-out: GPR139 Binding Affinity (pKi) (converted)
T1 construct: expressed in transfected cells; host or cells: T-REx-CHO (Thermo Fisher Scientific), doxycycline-induced
T1 sequence (Q6DWJ6 1-353): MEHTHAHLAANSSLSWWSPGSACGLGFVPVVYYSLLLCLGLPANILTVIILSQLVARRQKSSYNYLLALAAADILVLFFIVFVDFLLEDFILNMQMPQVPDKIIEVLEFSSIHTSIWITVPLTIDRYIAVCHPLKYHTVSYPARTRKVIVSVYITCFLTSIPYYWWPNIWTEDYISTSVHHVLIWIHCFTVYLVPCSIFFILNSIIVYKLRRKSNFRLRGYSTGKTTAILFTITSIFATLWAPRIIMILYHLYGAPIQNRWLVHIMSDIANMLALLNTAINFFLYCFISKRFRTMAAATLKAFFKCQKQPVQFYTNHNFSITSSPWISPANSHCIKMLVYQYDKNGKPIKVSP
Procedure: OPR139 Competition Binding
This membrane-based assay measures the ability of compounds to competitively bind GPR139 in stably transfected TREx™-CHO membranes. To prepare the membranes, T-REx™-CHO (Thermo Fisher Scientific®) cells are stably expressed with human GPR139 receptor, whose expression is controlled by a tetracycline-inducible element. The cells are cultured in medium containing F-12K nutrient mixture-Kaighn's modification, 10% tetracycline-free FBS, Blasticidin S HCl (10 μg/mL) and Hygromycin B (200 μg/mL). GPR139 receptor expression is induced for 18 hours with 2 μg/mL doxycycline (Sigma D9891) in growth media. After addition of doxycycline, cells are harvested in PBS and pelleted by centrifugation for 5 minutes at 200×G. Liquid is aspirated off and cells are resuspended in ice cold lysis buffer (20 mM HEPES/5 mM EDTA pH 7.4/1× Roche® protease inhibitor). Samples are vortexed until homogenous and then placed on ice and homogenized using a Dounce homogenizer at 50% power (3 cycles, 10 strokes per cycle). Lysate is centrifuged at 4° C. for 10 minutes in a tabletop Sorvall® centrifuge at 2000×G. The supernatant is recovered and centrifuged in a Sorvall® ultracentrifuge at 35,000 rpm for 30 minutes at 4° C. The supernatant is discarded, and the remaining pellet resuspended in lysis buffer (20 mM HEPES/0.1 mM EGTA/Roche® protease inhibitor). Membrane protein concentration is determined using Thermo Fisher® BCA quantification kit and is aliquoted into microtubes. Tubes are snap frozen in liquid nitrogen and stored at −80° C. Prior to use, the membranes are removed from cold storage, thawed to room temperature, vortexed until homogenous and diluted in assay buffer (20 mM HEPES pH 7.3, 5 mM MgCl2, 1 mM CaCl2), 1× Thermo Scientific® Halt™ protease inhibitor (78429)).
The assay is run in 96-well, polypropylene, v-bottom plates (Greiner Bio-One® 651201). Test compound in DMSO is added to the wells of each plate (11-point dose response curve, 30 μM maximum concentration, 3-fold serial dilution). A fixed amount of tritium-labeled ligand, (S)-2-(2,3-dimethyl-7-oxothieno[2,3-d]pyridazin-6(7H)-yl)-N-(1-(4-methoxyphenyl-2-t)propan-2-yl)acetamide (Quotient Bioresearch) in assay buffer (6.5 nM assay concentration) is added to each well of the assay plate, which is then agitated on a plate shaker for 30 seconds. Next, a fixed amount of membranes in assay buffer (2 μg membranes) is added to each well of the assay plate, which is then spun for 30 seconds at 300 rpm in a tabletop Eppendorf centrifuge, and then incubated at room temperature for 20 minutes. Using a Tomtec harvester, the contents of the assay plate are transferred to Filtermat A (PerkinElmer® No. 1450-421) which prior to use is pre-soaked in 0.5% PEI (Sigma P3143) for 3 hours and dried at room temperature overnight. Following transfer, the Filtermat is washed 5 times with cold wash buffer (20 mM HEPES pH 7.3, 100 mM NaCl). The Filtermat is dried using a microwave oven and placed in a sample bag (PerkinElmer® No. 1450-432) with a scintillator sheet (PerkinElmer® No. 1450-411). The scintillator sheet is melted to the Filtermat using a heat block set to 65° C., placed in a MicroBeta® cartridge and read using a MicroBeta® scintillation counter. Binding curves are generated with a four-parameter logistic equation using GraphPad Prism® 6 and the inhibition constant Ki is reported as pKi.

human GPR139 receptor [2] = biological target: T1, human GPR139 receptor; assay: Measurement of GPR139 Activation Via Calcium Signaling (FLIPR, T-REx-CHO cells); type: cell-based; settings: T-REx-CHO cells stably expressing human GPR139, 11-point dose response, 10 μM maximum concentration, read-out: GPR139 Potency (pEC50) (converted)
Procedure, shortened: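 Calcium flux read by FLIPR for 1 min after adding compounds (11 concentrations, maximum 10 μM) to doxycycline-induced (2 μg/mL, 17 h) T-REx-CHO cells expressing human GPR139. Cells dye-loaded 40 min at 37 °C in HBSS, 1 mM HEPES pH 7.4 with probenecid; activation reported as pEC50 from four-parameter logistic fit.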

Row | Structure (SMILES) | Ki (human GPR139 receptor [1]) [nM] | EC50 (human GPR139 receptor [2]) [nM]
1 | Cc1ccc([C@H](C)NC(=O)Cn2ncc3c(cnn3C)c2=O)cc1 [Example 33, (S)-2-(1-methyl-4-oxo-1,4-dihydro-5H-pyrazolo[3,4-d]pyridazin-5-yl)-N-(1-(p-tolyl)ethyl)acetamide] | 5250 | 66.1
2 | C[C@H](NC(=O)Cn1ncc2c(cnn2C)c1=O)c1ccc(C(F)(F)F)cc1 [Example 34, (S)-2-(1-methyl-4-oxo-1,4-dihydro-5H-pyrazolo[3,4-d]pyridazin-5-yl)-N-(1-(4-(trifluoromethyl)phenyl)ethyl)acetamide] | 6030 | 70.8
3 | Cc1ccc([C@H](C)NC(=O)Cn2ncc3c(cnn3C)c2=O)c(F)c1 [Example 35, (S)—N-(1-(2-fluoro-4-methylphenyl)ethyl)-2-(1-methyl-4-oxo-1,4-dihydro-5H-pyrazolo[3,4-d]pyridazin-5-yl)acetamide] | 1020 | 79.4
4 | Cc1ccc([C@H](C)NC(=O)Cn2ncc3c(c(C)nn3C)c2=O)cc1 [Example 36, (S)-2-(1,3-dimethyl-4-oxo-1,4-dihydro-5H-pyrazolo[3,4-d]pyridazin-5-yl)-N-(1-(p-tolyl)ethyl)acetamide] | 251 | 38.9
5 | Cc1nn(C)c2cnn(CC(=O)N[C@@H](C)c3ccc(C(F)(F)F)cc3)c(=O)c12 [Example 37, (S)-2-(1,3-dimethyl-4-oxo-1,4-dihydro-5H-pyrazolo[3,4-d]pyridazin-5-yl)-N-(1-(4-(trifluoromethyl)phenyl)ethyl)acetamide] | 355 | 26.3
6 | Cc1ccc([C@H](C)NC(=O)Cn2ncc3c(c(C4CC4)nn3C)c2=O)cc1 [Example 38, (S)-2-(3-cyclopropyl-1-methyl-4-oxo-1,4-dihydro-5H-pyrazolo[3,4-d]pyridazin-5-yl)-N-(1-(p-tolyl)ethyl)acetamide] | 72.4 | 55
7 | Cc1ccc([C@H](C)NC(=O)Cn2nc(C)c3cnn(C)c3c2=O)cc1 [Example 39, (S)-2-(1,4-dimethyl-7-oxo-1,7-dihydro-6-pyrazolo[3,4-d]pyridazin-6-yl)-N-(1-(p-totyl)ethyl)acetamide] | 229 | 36.3
8 | Cc1nn(CC(=O)N[C@@H](C)c2ccc(C(F)(F)F)cc2)c(=O)c2c1cnn2C [Example 40, (S)-2-(1,4-dimethyl-7-oxo-1,7-dihydro-6H-pyrazolo[3,4-d]pyridazin-6-yl)-N-(1-(4-(trifluoromethyl)phenyl)ethyl)acetamide] | 251 | 33.1
9 | Cc1ccc([C@H](C)NC(=O)Cn2nc(C)c3cnn(C)c3c2=O)c(F)c1 [Example 41, (S)-2-(1,4-dimethyl-7-oxo-1,7-dihydro-6H-pyrazolo[3,4-d]pyridazin-6-yl)-N-(1-(2-fluoro-4-methylphenyl)ethyl)acetamide] | 74.1 | 34.7
10 | Cc1ccc([C@H](C)NC(=O)Cn2nc(C3CC3)c3cnn(-c4ccccc4)c3c2=O)c(F)c1 [Example 42, (S)-2-(4-cyclopropyl-7-oxo-1-phenyl-1,7-dihydro-6H-pyrazolo[3,4-d]pyridazin-6-yl)-N-(1-(2-fluoro-4-methylphenyl)ethyl)acetamide] | 19.5 | ≥ 10000
11 | Cc1ccc([C@H](C)NC(=O)Cn2nc(C3CC3)c3cnn(-c4ccccc4)c3c2=O)cc1 [Example 43, (S)-2-(4-cyclopropyl-7-oxo-1-phenyl-1,7-dihydro-6H-pyrazolo[3,4-d]pyridazin-6-yl)-N-(1-(p-tolyl)ethyl)acetamide] | 89.1 | 708
12 | C[C@H](NC(=O)Cn1nc(C2CC2)c2cnn(-c3ccccc3)c2c1=O)c1ccc(C(F)(F)F)cc1 [Example 44, (S)-2-(4-cyclopropyl-7-oxo-1-phenyl-1,7-dihydro-6H-pyrazolo[3,4-d]pyridazin-6-yl)-N-(1-(4-(trifluoromethyl)phenyl)ethyl)acetamide] | 105 | 3630
13 | C[C@H](NC(=O)Cn1nc(C2CC2)c2cnn(-c3ccccc3)c2c1=O)c1ccc(OC(F)(F)F)cc1 [Example 45, (S)-2-(4-cyclopropyl-7-oxo-1-phenyl-1,7-dihydro-6H-pyrazolo[3,4-d]pyridazin-6-yl)-N-(1-(4-(trifluoromethoxy)phenyl)ethyl)acetamide] | 224 | ≥ 10000
14 | Cc1nn(C)c2cnn(CC(=O)N[C@@H](C)c3ccc(OC(F)(F)F)cc3)c(=O)c12 [Example 47, (S)-2-(1,3-dimethyl-4-oxo-1,4-dihydro-5H-pyrazolo[3,4-d]pyridazin-5-yl)-N-(1-(4-(trifluoromethoxy)phenyl)ethyl)acetamide] | 162 | 37.2
15 | COc1ccc([C@H](C)NC(=O)Cn2ncc3c(c(C)nn3C)c2=O)cc1 [Example 48, (S)-2-(1,3-dimethyl-4-oxo-1,4-dihydro-5H-pyrazolo[3,4-d]pyridazin-5-yl)-N-(1-(4-methoxyphenyl)ethyl)acetamide] | 1910 | 33.1
16 | Cc1ccc([C@H](C)NC(=O)Cn2ncc3c(c(C(C)C)nn3C)c2=O)c(F)c1 [Example 49, (S)—N-(1-(2-fluoro-4-methylphenyl)ethyl)-2-(3-isopropyl-1-methyl-4-oxo-1,4-dihydro-5H-pyrazolo[3,4-d]pyridazin-5-yl)acetamide] | 22.9 | 49
17 | CC(C)c1nn(C)c2cnn(CC(=O)N[C@@H](C)c3ccc(OC(F)(F)F)cc3)c(=O)c12 [Example 50, (S)-2-(3-isopropyl-1-methyl-4-oxo-1,4-dihydro-5H-pyrazolo[3,4-d]pyridazin-5-yl)-N-(1-(4-(trifluoromethoxy)phenyl)ethyl)acetamide] | 126 | 166
18 | Cc1ccc([C@H](C)NC(=O)Cn2ncc3c(c(C(C)C)nn3C)c2=O)cc1 [Example 51, (S)-2-(3-isopropyl-1-methyl-4-oxo-1,4-dihydro-5H-pyrazolo[3,4-d]pyridazin-5-yl)-N-(1-(p-tolyl)ethyl)acetamide] | 135 | 32.4
19 | CC(C)c1nn(C)c2cnn(CC(=O)N[C@@H](C)c3ccc(C(F)(F)F)cc3)c(=O)c12 [Example 52, (S)-2-(3-isopropyl-1-methyl-4-oxo-1,4-dihydro-5H-pyrazolo-[3,4-d]pyridazin-5-yl)-N-(1-(4-(trifluoromethyl)phenyl)ethyl)acetamide] | 204 | 67.6
20 | COc1ccc([C@H](C)NC(=O)Cn2ncc3c(c(C(C)C)nn3C)c2=O)cc1 [Example 53, (S)-2-(3-isopropyl-1-methyl-4-oxo-1,4-dihydro-5H-pyrazolo[3,4-d]pyridazin-5-yl)-N-(1-(4-methoxyphenyl)ethyl)acetamide] | 1020 | 55
